From paper PMC7840603, “Local Stabilization of Hypoxia-Inducible Factor-1α Controls Intestinal Inflammation via Enhanced Gut Barrier Function and Immune Regulation” (Frontiers in Immunology, 2021)

Experiments:
Test in all cases: prolyl hydroxylation assay of HIF-1α peptide, VBC binding by fluorescence polarization
Type in all cases: biochemical
HIF-PHD1 = target: T1, HIF-PHD1 (Homo sapiens, UniProt Q96KS0)
T1 construct: gene EGLN2

HIF-PHD2 = target: T2, HIF-PHD2 (Homo sapiens, UniProt Q9GZT9)
T2 construct: gene EGLN1

HIF-PHD3 = target: T3, HIF-PHD3 (Homo sapiens, UniProt Q9H6Z9)
T3 construct: gene EGLN3
T3 sequence (Q9H6Z9 whole entry): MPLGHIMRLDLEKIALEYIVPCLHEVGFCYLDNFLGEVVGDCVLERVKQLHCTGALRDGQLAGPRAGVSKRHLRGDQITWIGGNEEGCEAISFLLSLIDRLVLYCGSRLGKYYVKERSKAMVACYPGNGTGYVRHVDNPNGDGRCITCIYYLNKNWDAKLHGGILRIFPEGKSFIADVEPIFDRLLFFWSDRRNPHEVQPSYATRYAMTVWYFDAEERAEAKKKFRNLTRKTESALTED

T1 sequence (Q96KS0 whole entry): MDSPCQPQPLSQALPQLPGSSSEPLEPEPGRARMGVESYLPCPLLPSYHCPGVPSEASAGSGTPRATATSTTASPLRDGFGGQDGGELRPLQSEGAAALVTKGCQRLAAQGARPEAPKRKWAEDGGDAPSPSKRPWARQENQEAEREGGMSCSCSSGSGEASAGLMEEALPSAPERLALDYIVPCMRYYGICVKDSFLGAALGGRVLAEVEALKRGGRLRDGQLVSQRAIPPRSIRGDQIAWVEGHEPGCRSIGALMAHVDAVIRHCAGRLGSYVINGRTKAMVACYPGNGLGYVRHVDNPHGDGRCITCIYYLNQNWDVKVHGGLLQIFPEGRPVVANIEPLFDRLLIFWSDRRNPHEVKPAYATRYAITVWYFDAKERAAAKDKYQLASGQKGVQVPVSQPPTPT
T2 sequence (Q9GZT9 2-426): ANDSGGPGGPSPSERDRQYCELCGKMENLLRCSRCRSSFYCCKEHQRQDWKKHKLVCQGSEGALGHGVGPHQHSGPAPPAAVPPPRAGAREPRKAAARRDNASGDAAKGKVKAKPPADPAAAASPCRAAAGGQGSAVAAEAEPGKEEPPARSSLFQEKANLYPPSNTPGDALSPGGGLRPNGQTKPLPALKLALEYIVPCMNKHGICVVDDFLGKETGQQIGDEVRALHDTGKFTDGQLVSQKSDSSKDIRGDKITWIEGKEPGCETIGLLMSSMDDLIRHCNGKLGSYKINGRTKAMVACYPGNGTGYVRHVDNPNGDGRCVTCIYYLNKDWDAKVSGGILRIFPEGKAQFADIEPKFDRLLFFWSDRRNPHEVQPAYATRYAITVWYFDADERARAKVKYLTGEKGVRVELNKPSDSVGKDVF

IC50 (HIF-PHD1): 30 nM | IC50 (HIF-PHD2): 20 nM | IC50 (HIF-PHD3): 80 nM
Substance: CG-598
